In patent publication US5643954A, “Method of preventing and alleviating stress in a healthy mammal in need thereof” (priority 1993, dated 1997):
Read-outs that look alike come from different tables or passages of the source.

How the values were obtained:
[1] = assay type: in vivo; conditions: in vivo
[2] = test system: phenamine stereotypy; conditions: M ± m
[3] = not given; remark: listed apart in the source
[4] = test system: Corazol twitches; test: comparative interaction test with Corazol, rats; assay type: in vivo; conditions: M ± m
[5] = test system: Corazol convulsions; test: testings with Corazolin (Corazol), mice; assay type: in vivo; conditions: for Corazol latent period / Corazol life-time: M ± m
[6] = test system: chronic emotional stress; conditions: 1 mg/kg tongue root; for 15% ethanol daily consumed: M ± m
Excerpt: It is commonly known that manipulations with animals (cell sampling, administration of substances, water included) are a unique stress factor and cause a prolonged state of excitement, disturbance, aggressiveness.

[7] = test system: electric painful irritation; conditions: 60 min before experiment
[8] = test system: Corazol twitch paroxysm; conditions: for Threshold doses Corazol 1% solution, death of animal / Threshold doses Corazol 1% solution, start of twitch: M ± m
[9] = test system: hexenal sleep; test: comparative interaction test with hexenal, rats; assay type: in vivo; conditions: M ± m
[10] = after dose, M ± m
[11] = test system: guinea pig's ileum (acetylcholine); conditions: for Amplitude of concentration in % to control / Amplitude of concentration: acetylcholine; for Amplitude of concentration: M ± m
Protocol: Experiments were conducted in vivo on male mice weighing 18-22 g and male rats weighing 200-250 g, as well as in vitro on the isolated organs: a guinea pig's ileum and a rat's seminal effervesces.

[12] = test system: apomorphine stereotypy; conditions: M ± m
[13] = for Addition: after taking
Excerpt: A test permits evaluating the rate of counting-computing operations per unit time (in each and every minute), duration of execution of the task (time spent for adding 184 pairs of numbers), the number of mistakes, the speed of attention switching and the degree of weariness.

[14] = test system: arecoline hyperkinesia; conditions: M ± m
[15] = test system: bioelectric activity of rats' brain; test: spontaneous bioelectrical activity of rats' brain (EEG, implanted electrodes); assay type: in vivo; design: Amplitude, slow activ. / Amplitude, fast activ.: unit not given here; conditions: for Amplitude, fast activ. / Amplitude, slow activ.: M ± m
[16] = test system: electrical-shock-caused paroxysms
[17] = after the exams, after taking, M ± m
[18] = lab conditions, after taking, after testing, M ± m
[19] = taken 30 minutes before an exam
[20] = intragastric, 20 min before Corazol, in words
[21] = 40 mg/kg week-long introduction
[22] = 200 mg/kg single administration
[23] = 30 min after taking the claimed preparation

aminoacetic acid [claimed preparation]
Arterial pressure, diastolic [17]: 65.7 ± 1.5 mm Hg | Arterial pressure, systolic [17]: 112.8 ± 2.8 mm Hg | Pulse frequency [17]: 72.8 ± 2.3 spec./min. | change in pulse rate and arterial pressure (heightened nerve-psychic agitation, in words): eliminates a change in a pulse rate and arterial pressure | Arterial pressure, diastolic (in vivo): 69.3 ± 1.3 mm Hg | Arterial pressure, systolic (in vivo): 110.2 ± 1.7 mm Hg | Pulse frequency (in vivo): 76.8 ± 1.4 spec./min. | Arterial pressure, diastolic [18]: 69.2 ± 1.1 mm Hg | Arterial pressure, systolic [18]: 107.7 ± 1.5 mm Hg | Pulse frequency [18]: 78.1 ± 1.4 spec./min. | sedative and synchronizing effect on EEG [1]: displaying at the same time a sedative and synchronizing effect on EEG | phenamine duration of stereotypy ([2]; 2 mg/kg): 65.0 ± 2.5 min | phenamine latent period ([2]; 2 mg/kg): 110.0 ± 2.6 s | phenamine duration of stereotypy ([2]; 40 mg/kg): 62.0 ± 1.6 min | phenamine latent period ([2]; 40 mg/kg): 115.0 ± 1.5 s | phenamine duration of stereotypy ([2]; 200 mg/kg): 62.0 ± 2.1 min | phenamine latent period ([2]; 200 mg/kg): 120.0 ± 2.8 s | marks exceeding those of the school year [3, 19]: 0.5-1 point | students noting disappearance of fear and internal discomfort [3, 19]: 95% | good and excellent marks 4 and 5 ([3]; taken before an exam, chiefly in maths): 80% | Corazol twitches, latent period ([4]; 20 mg/kg): 41.0 ± 0.3 min | Corazol twitches, latent period ([4]; 80 mg/kg): 45.0 ± 0.9 min | Corazol twitches, latent period ([4]; 200 mg/kg): 42.5 ± 0.7 min | Corazol tonico-extensor phase ([5]; 2 mg/kg intragastric): 100 min | Corazol latent period ([5]; 2 mg/kg intragastric): 39.0 ± 0.6 s | Corazol life-time ([5]; 2 mg/kg intragastric): 2.5 ± 0.7 min | Corazol tonico-extensor phase ([5]; 20 mg/kg intragastric): 80 min | Corazol latent period ([5]; 20 mg/kg intragastric): 41.0 ± 0.3 s | Corazol life-time ([5]; 20 mg/kg intragastric): 2.8 ± 0.8 min | Corazol tonico-extensor phase ([5]; 40 mg/kg intragastric): 70 min | Corazol latent period ([5]; 40 mg/kg intragastric): 49.0 ± 0.7 s | Corazol life-time ([5]; 40 mg/kg intragastric): 2.4 ± 0.7 min | Corazol tonico-extensor phase ([5]; 80 mg/kg intragastric): 70 min | Corazol latent period ([5]; 80 mg/kg intragastric): 45.0 ± 0.9 s | Corazol life-time ([5]; 80 mg/kg intragastric): 3.1 ± 0.9 min | Corazol tonico-extensor phase ([5]; 200 mg/kg intragastric): 70 min | Corazol latent period ([5]; 200 mg/kg intragastric): 42.5 ± 0.7 s | Corazol life-time ([5]; 200 mg/kg intragastric): 2.4 ± 0.5 min | latent period of Corazol convulsions [5, 20]: increased latent period of Corazol convulsions | tonico-extensor component of a twitch paroxysm [5, 20]: some depression of the tonico-extensor component of a twitch paroxysm | alcohol motivation [6]: considerably reduces it | 15% ethanol daily consumed ([6]; 1 week): 3.6 ± 0.3 mL | 15% ethanol daily consumed ([6]; 2 week): 4.0 ± 0.3 mL | 15% ethanol daily consumed ([6]; 3 week): 2.3 ± 0.3 mL | 15% ethanol daily consumed ([6]; 4 week): 2.7 ± 0.2 mL | emotional reaction (squeak) [7]: did not exert influence on an emotional reaction | increase of aggression reaction threshold [7]: 5±0.8 v | number of fights [7]: reduced the number of fights | strengthening of motor component (jumps) [7]: 1-1.5 points | Threshold doses Corazol 1% solution, death of animal ([8]; 2 mg/kg single administration): 0.119 ± 0.006 mL | Threshold doses Corazol 1% solution, start of twitch ([8]; 2 mg/kg single administration): 0.095 ± 0.004 mL | Threshold doses Corazol 1% solution, death of animal ([8]; 2 mg/kg week-long introduction): 0.119 ± 0.004 mL | Threshold doses Corazol 1% solution, start of twitch ([8]; 2 mg/kg week-long introduction): 0.090 ± 0.007 mL | Threshold doses Corazol 1% solution, death of animal ([8]; 40 mg/kg single administration): 0.130 ± 0.006 mL | Threshold doses Corazol 1% solution, start of twitch ([8]; 40 mg/kg single administration): 0.091 ± 0.005 mL | Threshold doses Corazol 1% solution, death of animal [8, 21]: 0.163 ± 0.005 mL | Threshold doses Corazol 1% solution, start of twitch [8, 21]: 0.095 ± 0.005 mL | Threshold doses Corazol 1% solution, death of animal ([8]; 80 mg/kg single administration): 0.135 ± 0.007 mL | Threshold doses Corazol 1% solution, start of twitch ([8]; 80 mg/kg single administration): 0.095 ± 0.004 mL | Threshold doses Corazol 1% solution, death of animal [8, 22]: 0.130 ± 0.08 mL | Threshold doses Corazol 1% solution, start of twitch [8, 22]: 0.096 ± 0.007 mL | Corazol threshold dosage ([8]; in words): somewhat increasing a Corazol threshold dosage | Hexanal sleep duration ([9]; 2 mg/kg): 36.0 ± 1.8 min | Hexanal sleep duration ([9]; 40 mg/kg): 32.0 ± 1.9 min | Hexanal sleep duration ([9]; 200 mg/kg): 28.0 ± 1.9 min | AMo/Δx ([10]; after testing): 94.8 ± 4.1 | Amo ([10]; after testing): 36.4 ± 2.2% | Mo ([10]; after testing): 0.74 ± 0.03 s | Δx ([10]; after testing): 0.38 ± 0.01 s | AMo/Δx ([10]; prior to tests): 83.8 ± 4.0 | Amo ([10]; prior to tests): 32.0 ± 2.0% | Mo ([10]; prior to tests): 0.75 ± 0.03 s | Δx ([10]; prior to tests): 0.39 ± 0.01 s | Amplitude of concentration in % to control ([11]; 1·10^-4 M, 100 µM): 89% | Amplitude of concentration ([11]; 1·10^-4 M): 97.0 ± 1.5 mm | Amplitude of concentration in % to control ([11]; 1·10^-5 M, 10 µM): 99% | Amplitude of concentration ([11]; 1·10^-5 M): 105.0 ± 1.8 mm | Amplitude of concentration in % to control ([11]; 1·10^-6 M, 1 µM): 109% | Amplitude of concentration ([11]; 1·10^-6 M): 116.0 ± 2.4 mm | antagonism with acetylcholine ([11]; in words): without discovering antagonism with said acetylcholine | apomorphine duration of stereotypy ([12]; 2 mg/kg): 20.0 ± 0.9 min | apomorphine latent period ([12]; 2 mg/kg): 98.0 ± 1.5 s | apomorphine duration of stereotypy ([12]; 40 mg/kg): 22.0 ± 0.6 min | apomorphine latent period ([12]; 40 mg/kg): 104.0 ± 0.9 s | apomorphine duration of stereotypy ([12]; 200 mg/kg): 20.0 ± 0.5 min | apomorphine latent period ([12]; 200 mg/kg): 95.5 ± 0.8 s | cases with reduced time for adding up numbers ([13]; 30 min after single dose): 79.5% | number of errors in counting ([13]; 30 min after single dose): diminishes twice | reduction of time for adding up numbers ([13]; 30 min after single dose): 1.5 to 2 min | Number of mistakes [13, 23]: 1 | Those making mistakes [13, 23]: 40% | Speed of addition ([13]; 30 min after taking the claimed preparation, M ± m): 52.0 ± 1.9 pair/min | Addition ([13]; alcoholic abstinence syndrome (2nd day), M ± m): 32.0 ± 1.6 pair/min | Addition ([13]; remission period, M ± m): 51.0 ± 1.8 pair/min | Arecoline hyperkinesia, duration ([14]; 2 mg/kg): 16.5 ± 0.4 min | Arecoline hyperkinesia, duration ([14]; 20 mg/kg): 14.8 ± 1.2 min | Arecoline hyperkinesia, duration ([14]; 40 mg/kg): 13.8 ± 0.9 min | Arecoline hyperkinesia, duration ([14]; 80 mg/kg): 14.5 ± 0.9 min | Arecoline hyperkinesia, duration ([14]; 200 mg/kg): 15.6 ± 0.8 min | Amplitude, fast activ. ([15]; 2 mg/kg): 325 ± 24 | Amplitude, slow activ. ([15]; 2 mg/kg): 315 ± 14 | Maximal effect appearance time from the start of experiment ([15]; 40 mg/kg): 70 min | Nature of effect ([15]; 40 mg/kg): episodic | Nature of effect, episodes ([15]; 40 mg/kg): 1-2 episodes per hr | synchronizing effect on encephalogram ([15]; 40 mg/kg intraperitoneally): tends to call for a synchronizing effect on an encephalogram | Amplitude, fast activ. ([15]; 40 mg/kg): 243 ± 10 | Amplitude, slow activ. ([15]; 40 mg/kg): 380 ± 21 | Maximal electric shock death of animal ([16]; 2 mg/kg single administration): 70% | Maximal electric shock tonico-extensor phase ([16]; 2 mg/kg single administration): 100% | Maximal electric shock death of animal ([16]; 2 mg/kg week-long introduction): 60% | Maximal electric shock tonico-extensor phase ([16]; 2 mg/kg week-long introduction): 100% | Maximal electric shock death of animal ([16]; 40 mg/kg single administration): 40% | Maximal electric shock tonico-extensor phase ([16]; 40 mg/kg single administration): 100% | Maximal electric shock death of animal [16, 21]: 40% | Maximal electric shock tonico-extensor phase [16, 21]: 100% | Maximal electric shock death of animal ([16]; 80 mg/kg single administration): 40% | Maximal electric shock tonico-extensor phase ([16]; 80 mg/kg single administration): 100% | Maximal electric shock death of animal [16, 22]: 70% | Maximal electric shock tonico-extensor phase [16, 22]: 100% | activity towards electrical-shock-caused paroxysms ([16]; in words): inactive towards electrical-shock- caused paroxysms
